Source: article PMC7685627, “In vitro investigation of metabolic fate of α-mangostin and gartanin via skin permeation by LC-MS/MS and in silico evaluation of the metabolites by ADMET predictor™” (BMC Complementary Medicine and Therapies, 2020)
“Also recorded” adds a separate entry of the source.

Assays:
[1] = tested on: HEKn cells; assay: Metabolites during permeation across HEKn cell monolayer by LC-MS/MS; type: in vitro ADME, human; details: positive scan mode
Experimental: Human epidermal keratinocyte (neonatal) (HEKn) (InvitrogenTM, Cat# C-001-5C Lot#1654391, Oregon, USA) cells were grown in T-25 flask at 37 °C in an atmosphere of 5% CO2. The adherent keratinocytes were cultured in low calcium (0.09 mM), serum-free, Epilife® medium, and supplement with Human Keratinocyte Growth Supplement (HKGS) at 1% v/v concentration. When a 500 ml of Epilife® medium was supplemented with HKGS the final concentration of the components in the supplement medium were: bovine pituitary extract (BPE) 0.2% v/v, bovine insulin 5 μg/ml, hydrocortisone 0.18 μg/ml, bovine transferrin 5 μg/ml and human epidermal growth factor 0.2 ng/ml. The medium was replaced regularly three times a week until the flask reaches 90% confluence (Fig. 2). The cells were moved from the flasks by incubating the monolayers with 0.5% trypsin for 2–3 min at 37 °C. The cells were collected into centrifuge tubes, and then centrifuged at 1000 rpm for 4 min and the pellets were resuspended in Epilife® medium. Cells used for this study were in third and fourth passage in late sub confluency.
HEKns cells were seeded at a density of 1 × 10^5 cells/cm^2 on permeable supports (Transwell® Costar, 0.4 μm pore size) as shown in Fig. 3. […] The integrity of the HEKns cell monolayer in the transwell plates was determined by measuring Trans Epithelial Electrical Resistance (TEER). […]

[2] = tested on: HEKn cells; parameters: method as in PMID 32615127; details: gartanin 9 μM, compound alone; previous experiments ref 16; cited from earlier work
[3] = tested on: HEKn cells; assay: Papp, A-B from the previous permeation experiments; type: in vitro ADME, human; details: experimental Papp, A-B versus S+MDCK predicted Papp; previous experiments ref 16
[4] = tested on: CYP1A2; parameters: method as in Foti et al. [20]; details: ref Foti et al. [20]; cited from earlier work
[5] = tested on: CYP2C family of enzymes; parameters: method as in Foti et al. [20]; details: ref Foti et al. [20]; cited from earlier work

| SMILES | Metabolism identified by LC-MS/MS [1] | Papp, A-B [2] | Papp, A-B from experiments lower than predicted Papp [3] [fold] | Metabolizing CYP isoform [4] | Inhibition of CYP [5] |
| --- | --- | --- | --- | --- | --- |
| CC(C)=CCc1c(O)c(CC=C(C)C)c2oc3c(O)ccc(O)c3c(=O)c2c1O [Gartanin] | might be conjugated to sulfated derivatives; also recorded: not found to be metabolized in phase I metabolism | could not be detected | – | – | – |
| COc1c(O)cc2oc3cc(O)c(CC=C(C)C)c(O)c3c(=O)c2c1CC=C(C)C [α-mangostin] | might be metabolized via tri-oxidation process | – | 3 | metabolized primarily by CYP1A2 | potent inhibited |
